One compound from patent US20190290769A1, “Hydrogel Compositions” (The Trustees of the University of Pennsylvania, priority 2018, published 2019) can be followed below.

In brackets after ≈: the same amount, converted by molar mass.

The experiment has as its system T3565 cultured glioma stem cell. As to the kind of experiment: MTS assay of valproic acid on glioma stem cell viability. Type of experiment: cell-based. The settings on record: T3565 cells, varying concentrations. From the text: In vitro testing of valproic acid on glioma stem cell and non-stem cells.
On the technique in general: Formazan colour is commonly taken as a measure of viable cells.

The IC50 is the concentration at which inhibition is half-maximal. A higher IC50 goes with weaker potency. `CCCC(CCC)C(=O)O` [valproic acid] came in with an IC50 of 600 µg/mL (≈ 4.16 mM).
